Where two headings read alike, the source gives them in different places.
Key:
SH—SY5Y cells = test: Neuroblastoma cell viability assay (WST-1), SH—SY5Y; format: cell-based, human
[1] = Fe^2+ chelation assay (ferrozine, cell-free)
N1E 115 cells = test: Neuroblastoma cell viability assay (WST-1), N1E 115; format: cell-based, murine; conditions: N1E 115, 96 hours
[2] = SH—SY5Y, 96 hours, dose-response
[3] = cell-free, 0.5 mM FeSO4, 1 mM ferrozine, titration curves, absorbance 562 nm

CC(=O)N(O)CCCCCNC(=O)CCC(=O)N(O)CCCCCNC(=O)CCC(=O)N(O)CCCCCN [DFO, desferroxamine, reference compound]
effect on cell number (dose-response curve) (SH—SY5Y cells; [2]): biphasic effects
inhibition of Fe(ferrozine)3^2+ complex formation [1, 3]: able to prevent Fe(ferrozine)3^2+ complex formation
effect on cell number (dose-response curve) (N1E 115 cells): suppress neuroblastoma cell number

CC(C)=CCC[C@](C)(O[C@@H]1O[C@H](CO[C@@H]2O[C@H](CO)[C@@H](O)[C@H](O)[C@H]2O)[C@@H](O)[C@H](O)[C@H]1O)[C@H]1CC[C@]2(C)[C@@H]1[C@H](O)C[C@@H]1[C@@]3(C)CC[C@H](O[C@@H]4O[C@H](CO)[C@@H](O)[C@H](O)[C@H]4O[C@@H]4O[C@H](CO)[C@@H](O)[C@H](O)[C@H]4O)C(C)(C)[C@@H]3CC[C@]12C [Rb1, ginsenoside Rb1]
inhibition of Fe(ferrozine)3^2+ complex formation [1, 3]: demonstrated the ability to inhibit Fe^2+ interaction with ferrozine

CC(C)=CCC[C@](C)(O[C@@H]1O[C@H](CO[C@@H]2O[C@@H](CO)[C@H](O)[C@H]2O)[C@@H](O)[C@H](O)[C@H]1O)[C@H]1CC[C@]2(C)[C@@H]1[C@H](O)C[C@@H]1[C@@]3(C)CC[C@H](O[C@@H]4O[C@H](CO)[C@@H](O)[C@H](O)[C@H]4O[C@@H]4O[C@H](CO)[C@@H](O)[C@H](O)[C@H]4O)C(C)(C)[C@@H]3CC[C@]12C [Rc, ginsenoside Rc]
inhibition of Fe(ferrozine)3^2+ complex formation [1, 3]: demonstrated the ability to inhibit Fe^2+ interaction with ferrozine

CC(C)=CCC[C@](C)(O[C@@H]1O[C@H](CO)[C@@H](O)[C@H](O)[C@H]1O)[C@H]1CC[C@]2(C)[C@@H]1[C@H](O)C[C@@H]1[C@@]3(C)CC[C@H](O[C@@H]4O[C@H](CO)[C@@H](O)[C@H](O)[C@H]4O[C@@H]4O[C@H](CO)[C@@H](O)[C@H](O)[C@H]4O)C(C)(C)[C@@H]3CC[C@]12C [Rd, ginsenoside Rd]
inhibition of Fe(ferrozine)3^2+ complex formation [1, 3]: demonstrated the ability to inhibit Fe^2+ interaction with ferrozine

C[C@@H]1C(=O)O[C@H]2C[C@@]34[C@H]5C[C@@H](C(C)(C)C)[C@]36[C@@H](OC(=O)[C@@H]6O)O[C@@]4(C(=O)O5)[C@]21O [ginkgolide A]
effect on cell number (dose-response curve) (SH—SY5Y cells; [2]): Only quercetin demonstrated significant inhibition of cell number
inhibition of Fe(ferrozine)3^2+ complex formation [1]: no activity
effect on cell number (dose-response curve) (N1E 115 cells): Only quercetin demonstrated significant inhibition of cell number

CC1C(=O)OC2C(O)C34C5CC(C(C)(C)C)C36C(OC(=O)C6O)OC4(C(=O)O5)C12O (stereo not shown) [ginkgolide B]
effect on cell number (dose-response curve) (SH—SY5Y cells; [2]): Only quercetin demonstrated significant inhibition of cell number
inhibition of Fe(ferrozine)3^2+ complex formation [1, 3]: no activity
effect on cell number (dose-response curve) (N1E 115 cells): Only quercetin demonstrated significant inhibition of cell number

CC(C)=CCC[C@]1(C)[C@@H](CC=C(C)C)C[C@@]2(CC=C(C)C)C(=O)[C@]1(C(=O)C(C)C)C(=O)C(CC=C(C)C)=C2O [hyperforin]
effect on cell number (dose-response curve) (SH—SY5Y cells): significant and dose-dependent suppression of cell number
effect on cell number (dose-response curve) (N1E 115 cells): significant and dose-dependent suppression of cell number

O=c1c(O)c(-c2ccc(O)c(O)c2)oc2cc(O)cc(O)c12 [quercetin]
concentration at which significant (P<0.05) inhibition of cell number is first apparent (SH—SY5Y cells; SH—SY5Y, 96 hours): 5 µg/mL
effect on cell number (dose-response curve) (SH—SY5Y cells; [2]): significant inhibition of cell number
inhibition of Fe(ferrozine)3^2+ complex formation [1, 3]: able to inhibit Fe(ferrozine)3^2+ complex formation
concentration at which significant (P<0.05) inhibition of cell number is first apparent (N1E 115 cells): 5 µg/mL
effect on cell number (dose-response curve) (N1E 115 cells): significant inhibition of cell number

Source: US20080292733A1, “Antioxidant and Fe2+ Chelating Properties of Herbal Extracts” (priority 2005, published 2008)
